From PubChem BioAssay (NCI)
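In this assay, cells in 96-well plates receive the compound at five concentrations for 48 hours. Endpoints are linearly interpolated between the surrounding concentrations. GI50: concentration for 50% inhibition of growth. Definition used: TGI = concentration required for complete inhibition of growth.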

Experiments:
Test in all cases: DTP human tumour cell line panel, 48 h
[1] = test system: EKVX NSCLC
[2] = test system: PC-3 prostate
[3] = test system: ACHN renal
[4] = test system: SNB-75 CNS
[5] = test system: BT-549 breast
[6] = test system: SK-MEL-2 melanoma
[7] = test system: COLO 205 colon
[8] = test system: IGROV1 ovarian
[9] = test system: SK-OV-3 ovarian
[10] = test system: NCI-H522 lung
[11] = test system: T-47D breast
[12] = test system: SF-539 CNS
[13] = test system: UACC-62 melanoma
[14] = test system: CAKI-1 renal
[15] = test system: UO-31 renal
[16] = test system: SW-620 colon
[17] = test system: MALME-3M melanoma
[18] = test system: SF-268 CNS
[19] = test system: NCI-H226 lung
[20] = test system: SF-295 CNS
[21] = test system: RXF 393 renal
[22] = test system: 786-0 renal
[23] = test system: HS 578T breast
[24] = test system: OVCAR-3 ovarian
[25] = test system: NCI/ADR-RES ovarian
[26] = test system: A549 NSCLC
[27] = test system: K-562 leukemia
[28] = test system: RPMI-8226 leukemia
[29] = test system: SNB-19 CNS
[30] = test system: HCT-116 colon
[31] = test system: SK-MEL-5 melanoma
[32] = test system: HOP-92 NSCLC
[33] = test system: DU-145 prostate
[34] = test system: OVCAR-5 ovarian
[35] = test system: UACC-257 melanoma
[36] = test system: SR leukemia
[37] = test system: SN12C renal
[38] = test system: OVCAR-8 ovarian
[39] = test system: HOP-62 NSCLC
[40] = test system: TK-10 renal
[41] = test system: NCI-H460 lung
[42] = test system: HCC-2998 colon
[43] = test system: MDA-MB-435
[44] = test system: U251 CNS
[45] = test system: OVCAR-4 ovarian
[46] = test system: KM12 colon
[47] = test system: MDA-MB-231 breast
[48] = test system: SK-MEL-28 melanoma
[49] = test system: NCI-H23 lung
[50] = test system: MOLT-4 leukemia
[51] = test system: HCT-15 colon
[52] = test system: LOX IMVI melanoma
[53] = test system: CCRF-CEM leukemia
[54] = test system: HL-60(TB) leukemia
[55] = test system: M14 melanoma
[56] = test system: HT29 colon

COC(=O)/C=C1/SC(=Nc2ccc(F)cc2)N(CCc2c[nH]c3ccc(O)cc23)C1=O
GI50 [1]: 20.7 µM
TGI [1]: > 100 µM
GI50 [2]: 7.05 µM
TGI [2]: > 100 µM
GI50 [3]: 7.29 µM
TGI [3]: > 100 µM
GI50 [4]: 4.01 µM
TGI [4]: 18.3 µM
GI50 [5]: 3.75 µM
TGI [5]: 38.4 µM
GI50 [6]: 2.76 µM
TGI [6]: 9.06 µM
GI50 [7]: > 100 µM
TGI [7]: > 100 µM
GI50 [8]: 5.79 µM
TGI [8]: > 100 µM
GI50 [9]: 24.4 µM
TGI [9]: > 100 µM
GI50 [10]: 3.85 µM
TGI [10]: > 100 µM
GI50 [11]: 4.4 µM
TGI [11]: > 100 µM
GI50 [12]: 6.42 µM
TGI [12]: 26.1 µM
GI50 [13]: 4.75 µM
TGI [13]: 27.7 µM
GI50 [14]: 24.9 µM
TGI [14]: > 100 µM
GI50 [15]: 7.07 µM
TGI [15]: > 100 µM
GI50 [16]: > 100 µM
TGI [16]: > 100 µM
GI50 [17]: 12.9 µM
TGI [17]: > 100 µM
GI50 [18]: 5.96 µM
TGI [18]: 42.7 µM
GI50 [19]: 4.17 µM
TGI [19]: 47.4 µM
GI50 [20]: 12 µM
TGI [20]: 41.3 µM
GI50 [21]: 2.23 µM
TGI [21]: 8.98 µM
GI50 [22]: 6.85 µM
TGI [22]: 40.1 µM
GI50 [23]: 4.28 µM
TGI [23]: 35.7 µM
GI50 [24]: 4.41 µM
TGI [24]: > 100 µM
GI50 [25]: 4.69 µM
TGI [25]: > 100 µM
GI50 [26]: 41.2 µM
TGI [26]: > 100 µM
GI50 [27]: > 100 µM
TGI [27]: > 100 µM
GI50 [28]: 3.01 µM
TGI [28]: > 100 µM
GI50 [29]: 9.28 µM
TGI [29]: 51.9 µM
GI50 [30]: 4.89 µM
TGI [30]: > 100 µM
GI50 [31]: 11.1 µM
TGI [31]: 77.3 µM
GI50 [32]: 6.21 µM
TGI [32]: 29.6 µM
GI50 [33]: 5.92 µM
TGI [33]: > 100 µM
GI50 [34]: > 100 µM
TGI [34]: > 100 µM
GI50 [35]: 9.82 µM
TGI [35]: > 100 µM
GI50 [36]: 2.08 µM
TGI [36]: > 100 µM
GI50 [37]: 8.44 µM
TGI [37]: > 100 µM
GI50 [38]: 4.45 µM
TGI [38]: 67.5 µM
GI50 [39]: 3.83 µM
TGI [39]: 19.7 µM
GI50 [40]: 14 µM
TGI [40]: 58.7 µM
GI50 [41]: 4.71 µM
TGI [41]: > 100 µM
GI50 [42]: > 100 µM
TGI [42]: > 100 µM
GI50 [43]: 3.79 µM
TGI [43]: > 100 µM
GI50 [44]: 4.32 µM
TGI [44]: 27.3 µM
GI50 [45]: 3.37 µM
TGI [45]: 22.7 µM
GI50 [46]: 5.56 µM
TGI [46]: > 100 µM
GI50 [47]: 14.8 µM
TGI [47]: > 100 µM
GI50 [48]: 7.34 µM
TGI [48]: > 100 µM
GI50 [49]: 7.49 µM
TGI [49]: > 100 µM

COc1ccc(C(=S)N(C)NC(=O)CC(=O)NN(C)C(=S)c2ccc(OC)cc2)cc1
GI50 [1]: 32 µM
TGI [1]: > 100 µM
GI50 [2]: 26.1 µM
TGI [2]: > 100 µM
GI50 [3]: 50.7 µM
TGI [3]: > 100 µM
GI50 [4]: > 100 µM
TGI [4]: > 100 µM
GI50 [5]: 50.3 µM
TGI [5]: > 100 µM
GI50 [6]: 79.6 µM
TGI [6]: > 100 µM
GI50 [7]: 12.8 µM
TGI [7]: 70.8 µM
GI50 [8]: 54.4 µM
TGI [8]: > 100 µM
GI50 [50]: > 100 µM
TGI [50]: > 100 µM
GI50 [9]: > 100 µM
TGI [9]: > 100 µM
GI50 [10]: 45.9 µM
TGI [10]: > 100 µM
GI50 [11]: 58.6 µM
TGI [11]: > 100 µM
GI50 [51]: 17.6 µM
TGI [51]: > 100 µM
GI50 [12]: 51.9 µM
TGI [12]: > 100 µM
GI50 [13]: 37 µM
TGI [13]: > 100 µM
GI50 [14]: 31.8 µM
TGI [14]: > 100 µM
GI50 [15]: 24.9 µM
TGI [15]: > 100 µM
GI50 [52]: 28.9 µM
TGI [52]: > 100 µM
GI50 [16]: 33.3 µM
TGI [16]: > 100 µM
GI50 [17]: 52.3 µM
TGI [17]: > 100 µM
GI50 [18]: 43.2 µM
TGI [18]: > 100 µM
GI50 [19]: 49.8 µM
TGI [19]: > 100 µM
GI50 [20]: 1.63 µM
TGI [20]: 39 µM
GI50 [21]: 40.4 µM
TGI [21]: 92.3 µM
GI50 [22]: 58.5 µM
TGI [22]: > 100 µM
GI50 [23]: 24.4 µM
TGI [23]: 82.6 µM
GI50 [24]: 36.5 µM
TGI [24]: > 100 µM
GI50 [25]: 29.1 µM
TGI [25]: > 100 µM
GI50 [26]: 24.5 µM
TGI [26]: > 100 µM
GI50 [27]: 59.4 µM
TGI [27]: > 100 µM
GI50 [53]: 23.4 µM
TGI [53]: > 100 µM
GI50 [28]: 0.0119 µM
TGI [28]: > 100 µM
GI50 [29]: > 100 µM
TGI [29]: > 100 µM
GI50 [31]: 36.2 µM
TGI [31]: > 100 µM
GI50 [32]: 0.283 µM
TGI [32]: > 100 µM
GI50 [33]: 46.9 µM
TGI [33]: > 100 µM
GI50 [34]: 76.3 µM
TGI [34]: > 100 µM
GI50 [54]: > 100 µM
TGI [54]: > 100 µM
GI50 [36]: > 100 µM
TGI [36]: > 100 µM
GI50 [37]: 98 µM
TGI [37]: > 100 µM
GI50 [55]: 33.5 µM
TGI [55]: > 100 µM
GI50 [38]: 38.9 µM
TGI [38]: > 100 µM
GI50 [39]: > 100 µM
TGI [39]: > 100 µM
GI50 [40]: 67 µM
TGI [40]: > 100 µM
GI50 [41]: 18.1 µM
TGI [41]: > 100 µM
GI50 [43]: 59.9 µM
TGI [43]: > 100 µM
GI50 [44]: 45.8 µM
TGI [44]: > 100 µM
GI50 [45]: 31.7 µM
TGI [45]: > 100 µM
GI50 [46]: 62.7 µM
TGI [46]: > 100 µM
GI50 [56]: 39.1 µM
TGI [56]: > 100 µM
GI50 [47]: > 100 µM
TGI [47]: > 100 µM
GI50 [48]: 42.6 µM
TGI [48]: > 100 µM
GI50 [49]: 46.6 µM
TGI [49]: > 100 µM
